Earlier results in patent US8952066B2, “Pharmaceutical/cosmetic, E.G., anti-acne compositions comprising at least one naphthoic acid compound, benzoyl peroxide and at least one film-forming agent” (Galderma Research & Development, priority 2007, dated 2015).
Where two headings read alike, the source gives them in different places.

Key:
[1] = in presence of the benzoyl peroxide-based formulation
[2] = 40° C.

## COc1ccc(-c2ccc3cc(C(=O)O)ccc3c2)cc1C12CC3CC(CC(C3)C1)C2 [adapalene, 6-[3-(1-adamantyl)-4-methoxyphenyl]-2-naphthoic acid]
[1]; for 24 hours
  Degradation of the retinoid (in words): no degradation

## O=C(OOC(=O)c1ccccc1)c1ccccc1 [benzoyl peroxide]
[2]; in PEG 400 (0.5 mg/g)
  Degradation time: 1.4 days
[2]; in ethanol
  Degradation time: 29 days
[2]; in propylene glycol
  Degradation time: 53 days

## CC1=C(/C=C/C(C)=C/C=C/C(C)=C/C(=O)O)C(C)(C)CCC1 [tretinoin]
[1]; in 2 hours
  Degradation of the retinoid: 50%
[1]; in 24 hours
  Degradation of the retinoid: 95%
